Measurements as given in patent US20130005825A1, “Inhibition of the Survival of Lymphoma by Cyclohexenone Compounds from Antrodia Camphorata” (Golden Biotechnology Corporation, priority 2009, published 2013).

Tested on: lymphoma cell line U937
Experiment: In vitro survival assay (MTT) for anti-lymphoma effects
Type: cell-based
Conditions: Homo sapiens, U-937, U937 cells, 48 hours treatment, read-out: IC50 (half inhibition concentration), survival of lymphoma cells
Method: Inhibiting effects of lymphoma cells by cyclohexenone compounds of Antrodia camphorata from example 1 were assessed according to the anticancer-drug screening model of National Cancer Institute (NCI). The compound 4-hydroxy-2,3-dimethoxy-6-methyl-5-(3,7,11-trimethyl-dodeca-2,6,10-trienyl)-cyclohex-2-enone from example 1 was added into the culture media of lymphoma cell line U937 to determine the survival rates. Survival of cell was analyzed using MTT assay. U937 cell line was a human histiocytic lymphoma cell line.
MTT assay is commonly used to analyze cell proliferation, survival rate of viable cells and cytotoxicity. MTT (3[4,5-dimethylthiazol-2-yl]-2,5-diphenyltetrazolium bromide) is a yellow dye which can be converted to water-insoluble purple formazan on the reductive cleavage of its tetrazolium ring by the succinate tetrazolium reductase in mitochondria of cells. The amount of formazan produced is used to detect the number of viable cells and calculate the survival rates.
The U937 cells were cultivated in RPMI 1640 medium supplemented with 10% fetal bovine serum, 10 U/ml of Penicillin and 100 μg/ml of Streptomycin at 37° C., 5% CO2 for 24 hours. […] The absorbances were measured at 570 nm with an ELISA Reader to determine the survival rates.

How did the IC50 turn out when `COC1=C(OC)C(O)C(C/C=C(\C)CC/C=C(\C)CCC=C(C)C)C(C)C1=O` (stereo not shown) [formula 2, 4-hydroxy-2,3-dimethoxy-6-methyl-5-(3,7,11-trimethyl-dodeca-2,6,10-trienyl)-cyclohex-2-enone] was run?
Its IC50 is 9.71 µg/mL.
